Here are results for one substance from patent US20250268474A1, “Systems and Methods for Detecting Fibrosis” (3HELIX, INC., priority 2021, published 2025).

In the assay the test system is damaged/denatured collagen. As to the kind of experiment: LCHP in vivo imaging (fundus / ICG angiography) in CNV mice. Conditions: spontaneous CNV (JR5558), FIG. 6A; 1 nmol per animal, tail vein.

Where no end group is shown, it is not given here. [ ]: non-standard residue; d: D form. Pro(cis-4-F) = O=C(O)[C@@H]1C[C@H](F)CN1; Hyp = O=C(O)[C@@H]1C[C@@H](O)CN1

Turning to “sulfo-Cy7.5-GGG-OfGGOfGfGfOfOGOfGOOfGGOOff ({sulfo‑Cy7.5}-GGG[Hyp][Pro(cis-4-F)]GG[Hyp][Pro(cis-4-F)]G[Pro(cis-4-F)]G[Pro(cis-4-F)][Hyp][Pro(cis-4-F)][Hyp]G[Hyp][Pro(cis-4-F)]G[Hyp][Hyp][Pro(cis-4-F)]GG[Hyp][Hyp][Pro(cis-4-F)][Pro(cis-4-F)]; not fully specified; printed as sulfo-Cy7.5-GGG-OfGGOfGfGfOfOGOfGOOfGGOOff) [scrambled sCy7.5-CHP]”, the “signal in IR, FA and ICGA imaging” value is given as “no significant signal was detected”.
